Experimental data reported in patent publication US8247002B2, “Antioxidant material, anti-deterioration agent and food or beverage” (Pokka Corporation, priority 2004, dated 2012).

How the values were obtained:
Assay type in all cases: biochemical
[1] = Measurement of DPPH radical-scavenging activity; conditions: 500 ppm solution (with vitamin C: each 500 ppm), 100 μl aliquot, 20 minutes room temperature in the dark
Method: Each sample shown in Table 1 described below was examined for DPPH (1,1-diphenyl-2-picrylhydrazyl) radical-scavenging activity. Namely, the lemon glycoside of Comparative Example 1, the eriocitrin of Comparative Example 2, the enzyme-treated aglycon of Test Example 1, or eriodictyol, neoeriocitrin, vitamin C, or α-tocopherol purchased from Funakoshi was dissolved at its concentration of 500 ppm in a solvent to produce an aqueous solution. Then, 100 μl aliquot of the aqueous solution was supplemented with 1 ml of 0.1 M Tris buffer (pH 7.4). The solvent used for α-tocopherol was methanol. Alternatively, each sample described above and vitamin C were dissolved at each concentration of 500 ppm in a solvent to produce an aqueous solution whose 100 μl aliquot was then supplemented with 1 ml of 0.1 M Tris buffer. Subsequently, 2 ml of a DPPH solution (solution obtained by dissolving DPPH at its concentration of 500 μM in ethanol) was added to the solutions and well mixed. The resulting solutions were left at room temperature for 20 minutes in the dark to undergo reaction. The amount of DPPH in each reaction solution (10 μl) was quantified by measurement using HPLC Analysis System 2 described below under HPLC Condition 3. In a method of evaluating radical-scavenging activity, the amount of DPPH remaining in the sample (glycoside and aglycon)-free test section (control) was regarded in advance as 100%. Additionally, the amount of DPPH remaining in the reaction solution supplemented with each sample was measured and indicated by percentage (%) with respect to the amount of DPPH in the control section. Because the radical-scavenging activity of the section supplemented with eriodictyol and vitamin C was almost 100%, the test was conducted again with the amount of the sample reduced to half. Namely, eriodictyol and vitamin C were dissolved at each concentration of 500 ppm in a solvent to produce an aqueous solution whose 50 μl aliquot was then supplemented with 1 ml of 0.1 M Tris buffer. The radical-scavenging activity of the resulting solution was measured as described above. The obtained numeric value was doubled to thereby correct the data. The result is shown in Table 1. <HPLC Analysis System 2> Pump: Shimadzu LC-10AD, System Controller: Shimadzu SCL-10A, Autoinjector: Shimadzu SIL-10A, Detector: Shimadzu SPD-10A (UV spectrophotometric detector), Column Oven: Shimadzu CTO-10A <HPLC Condition 3> Column: TSK-GEL octyl-80Ts (4.6 i.d.×150 mm), Eluent: methanol/water=30/70 (v/v), Flow Rate: 1 ml/min, Detection Wavelength: 517 nm

[2] = Inhibitory effect on oxidation of biomembrane using liposome (SUV, AAPH, TBA); conditions: 500 ppm sample in phosphate buffer pH 7.4, AAPH, 535 nm
Method: A single compartment liposome (SUV: Small Unilamellar Vesicle) was used as a biomembrane model to evaluate antioxidative power. For preparing SUV, at first, 100 mg of yolk lecithin was supplemented with 1 ml of chloroform and completely dissolved, followed by the complete removal of the chloroform in a short-neck flask. The obtained lipid film was swollen by the addition of 10 ml of 10 mM phosphate buffer (pH 7.4) containing 500 ppm of the lemon glycoside of Comparative Example 1, the eriocitrin of Comparative Example 2, the enzyme-treated aglycon of Test Example 1, or eriodictyol (manufactured by Funakoshi). The resulting mixture was well shaken and completely dispersed with an ultrasonic washing machine. The lipid film swollen by the addition of 10 ml of only the phosphate buffer was tested as a control in the same way. Next, the obtained multilayer liposome solution was bubbled with nitrogen gas for 5 minutes and then sonicated at 180 W for 20 minutes in a strong ultrasonic generator to prepare a small unilamellar vesicle (SUV).
The peroxidation of the SUV thus prepared was forcedly promoted by the addition of AAPH ([…]), a radical initiator, to the SUV. As a result, a peroxide as a primary product is generated in the liposome. Subsequently, as a secondary product such as malondialdehyde is generated during the course of autoxidation. A thiobarbituric acid (TBA) reagent is added thereto to generate a red substance (TBA-positive substance), a reaction product of aldehydes. The degree of coloration thereof was measured with a spectrophotometer at λ=535 nm and used to determine the rate of oxidation of the liposome membrane (%).

[3] = Inhibitory effects on generation of peroxide lipid, methyl linoleate as substrate; conditions: 100 μl of 500 ppm solution, 89 mg methyl linoleate, 40° C. 18 hours in the dark
Method: Each sample shown in Table 1 described above was examined for inhibitory effects on the generation of peroxide lipid, with methyl linoleate as a substrate. Namely, 100 μl of each aqueous solution used in the paragraph (Measurement of radical-scavenging activity) and 89 mg (100 μl) of methyl linoleate were added to a small test tube of 14 mm in inner diameter and well mixed. At the same time, 100 μl of only the solvent for the aqueous solution was added instead of the aqueous solution to prepare a control. The solvents in these mixture solutions were completely removed in a vacuum desiccator using a vacuum pump. The resulting solutions were left in the dark at 40° C. for 18 hours. Next, 5 ml of 0.08% BHT (2,6-di-t-butyl-4-methylphenol)/hexane solution was added thereto. The amount of peroxide generated from methyl linoleate was measured using HPLC Analysis System 2 shown below under HPLC Condition 4. In a method of measuring and evaluating antioxidative activity, the total of HPLC peak area of peroxide lipids (13-hydroperoxide and 9-hydroperoxide) generated from methyl linoleate in the control test section was determined first. This determined value was regarded as 100%. The total HPLC peak area of the peroxide lipids in the test section supplemented with each sample was determined. This determined value was indicated by percentage (%) with respect to the total of HPLC peak area of the control to thereby determine a rate of inhibition against the oxidation of methyl linoleate.
Pump: Shimadzu LC-10AD, System Controller: Shimadzu SCL-10A, Autoinjector: Shimadzu SIL-10A, Detector: Shimadzu SPD-10A (UV spectrophotometric detector), Column Oven: Shimadzu CTO-10A
Column: Develosil ST 60-5 (4.6 i.d.×250 mm), Eluent: n-hexane/1,4-dioxane/isopropylalcohol=98/1/1 (v/v/v), Flow Rate: 1 ml/min, Detection Wavelength: 235 nm

[4] = Measurement of rate of elimination of active oxygen (xanthine oxidase / xanthine / nitro blue tetrazolium); conditions: as printed for α-tocopherol in the active oxygen test
Method: Xanthine oxidase (0.5 ml (5.6 units)) was mixed with 0.3 ml of 1 mM xanthine (manufactured by Wako Pure Chemical Industries), 0.3 ml of 0.25 mM nitro blue tetrazolium (manufactured by Wako Pure Chemical Industries), and 2.3 ml of 0.05 M sodium carbonate buffer (pH 10.2). The xanthine oxidase used was a reagent (manufactured by Wako Pure Chemical Industries) diluted at 100 fold with 0.05 M sodium carbonate buffer. This mixture was supplemented with 0.1 ml (concentration: 1000 ppm) of the lemon glycoside of Comparative Example 1 or the enzyme-treated aglycon of Test Example 1 and incubated. Because blue formazan was produced with a lapse of incubation time, absorbance at λ=560 nm was measured using a spectrophotometer (HITACHI spectrophotometer U2000) after 3 minutes of incubation. A test section without addition of the sample (glycoside and aglycon) was used as control. As a blank test, a sodium carbonate buffer was added instead of the xanthine oxidase to perform the same procedures. A value obtained by subtracting the absorbance of the blank test from the absorbance of the solution supplemented with each sample was divided by the absorbance of the control to thereby determine a rate of elimination of active oxygen (%).

| SMILES | DPPH radical-scavenging activity [1] [%] | rate of oxidation of the liposome membrane [2] [%] | Rate of inhibition against oxidation of methyl linoleate [3] [%] | rate of oxidation [4] [%] |
| --- | --- | --- | --- | --- |
| C[C@@H]1O[C@@H](OC[C@H]2O[C@@H](Oc3cc(O)c4c(c3)O[C@H](c3ccc(O)c(O)c3)CC4=O)[C@H](O)[C@@H](O)[C@@H]2O)[C@H](O)[C@H](O)[C@H]1O [Eriocitrin, eriocitrin] | 28.64 | 9.52 | 8.00 |  |
| O=C1C[C@@H](c2ccc(O)c(O)c2)Oc2cc(O)cc(O)c21 [Eriodictyol, eriodictyol] | 75.70 | 6.80 | 20.99 |  |
| C[C@@H]1O[C@@H](O[C@H]2[C@H](Oc3cc(O)c4c(c3)O[C@H](c3ccc(O)c(O)c3)CC4=O)O[C@H](CO)[C@@H](O)[C@@H]2O)[C@H](O)[C@H](O)[C@H]1O [Neoeriocitrin, neoeriocitrin] | 30.70 |  | 9.24 |  |
| O=C1O[C@H]([C@@H](O)CO)C(O)=C1O [Vitamin C, ascorbic acid] | 14.00 |  | 8.32 |  |
| Cc1c(C)c2c(c(C)c1O)CC[C@@](C)(CCC[C@H](C)CCC[C@H](C)CCCC(C)C)O2 [α-tocopherol] | 44.82 | 76.87 | 16.97 | 238.2 |
